From publication PMC9537541, “Synthesis and anticancer activity of new benzensulfonamides incorporating s-triazines as cyclic linkers for inhibition of carbonic anhydrase IX” (Scientific Reports, 2022)
Counter-ions that a name gives are not always drawn.

How the values were obtained:
hCA XII = biological target: T1, hCA XII (Homo sapiens, UniProt O43570); assay: stopped-flow CO2 hydrase assay, hCA XII; type: biochemical; conditions: for Selectivity index (SI) I/XII: hCA XII over off-target hCA I; for Selectivity index (SI) II/XII: hCA XII over off-target hCA II; for Ki: stopped flow technique, mean from 3 different assays
T1 construct: made in house
Description: (§1) Target compounds of series (A) and (B) were screened as inhibitors concerning the physiologically relevant hCAs; cytosolic isoforms (hCA I and II) in addition to the transmembrane tumor related isoforms (hCA IX and XII) via a stopped-flow assay of carbonic anhydrase catalyzed CO2 hydration. Acetazolamide (AAZ), CA I drug, was also incorporated in the assays as a standard drug. […] Four CA isoforms inhibition activity was measured by assaying CA catalyzed CO2 hydration via an applied photophysics stopped-flow instrument. PRISM 3 and the Cheng-prusoff equation were used to determine the inhibition constant by non-linear least square methods as reported, and represent the mean from three different determination at least. All tested carbonic anhydrase isoforms were recombinant proteins prepared in lab as described earlier,[57].

hCA I = biological target: T2, hCA I (Homo sapiens, UniProt P00915); assay: stopped-flow CO2 hydrase assay, hCA I; type: biochemical; conditions: stopped flow technique, mean from 3 different assays
T2 construct: made in house
Description: as §1

Leukemia (SR) = assay: NCI single dose SRB screen, SR; type: cell-based; conditions: 48 h, 10^−5 M single dose, read-out: GI% Leukemia (SR)
Description: (§2) Target compounds in series (A) and (B), were submitted to the National Cancer Institute (NCI) Developmental Therapeutic Program (www.dtp.nci.nih.gov), where they have been assessed, in vitro for their anticancer activity. Two series (A) and (B), were screened in a single dose (10 µM) versus full panel composed of 60 cancer cell lines, in accordance with protocol of drug evaluation branch, NCI, Bethesda. Sulforhodamine B (SRB) colorimetric assay was used to determine cell growth and viability,[40].
(§3) Protocol of Drug Evaluation Branch, NCI, Bethesda, was adopted in the antitumor assay. Assessment of cell growth and viability was carried out utilizing SRB assay and 48 h drug exposure protocol as previously reported,[40].

CNS cancer (SNB-75) = assay: NCI single dose SRB screen, SNB-75; type: cell-based; conditions: Homo sapiens, SNB-75, 48 h, 10^−5 M single dose, read-out: GI% CNS cancer (SNB-75)
Description: as §2, §3

Renal cancer (UO-31) = assay: NCI single dose SRB screen, UO-31; type: cell-based; conditions: Homo sapiens, UO-31, 48 h, 10^−5 M single dose, read-out: GI% Renal cancer (UO-31)
Description: as §2, §3

hCA IX = biological target: T3, hCA IX (Homo sapiens, UniProt Q16790); assay: stopped-flow CO2 hydrase assay, hCA IX; type: biochemical; conditions: for Selectivity index (SI) I/IX: hCA IX over off-target hCA I; for Selectivity index (SI) II/IX: hCA IX over off-target hCA II; for Ki: stopped flow technique, mean from 3 different assays
T3 construct: made in house
Description: as §1

[1] = tested on: Breast cancer (MDA-MB-468); assay: NCI single dose SRB screen, MDA-MB-468; type: cell-based; conditions: Homo sapiens, MDA-MB-468, 48 h, 10^−5 M single dose, 48 h, SRB; read-out: GI% Breast cancer (MDA-MB-468)
Description: as §2, §3

hCA II = biological target: T4, hCA II (Homo sapiens, UniProt P00918); assay: stopped-flow CO2 hydrase assay, hCA II; type: biochemical; conditions: for Ki: stopped flow technique, mean from 3 different assays
T4 construct: made in house
Description: as §1

T2 sequence (P00915 whole entry): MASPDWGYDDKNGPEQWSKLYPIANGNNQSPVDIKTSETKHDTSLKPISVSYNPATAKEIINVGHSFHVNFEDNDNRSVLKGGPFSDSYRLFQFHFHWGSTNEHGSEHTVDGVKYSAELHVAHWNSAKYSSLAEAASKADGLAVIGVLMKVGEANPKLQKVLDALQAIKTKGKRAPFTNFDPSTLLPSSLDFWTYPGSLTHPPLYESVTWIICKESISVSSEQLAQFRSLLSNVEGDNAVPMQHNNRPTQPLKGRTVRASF
T1 sequence (O43570 25-354): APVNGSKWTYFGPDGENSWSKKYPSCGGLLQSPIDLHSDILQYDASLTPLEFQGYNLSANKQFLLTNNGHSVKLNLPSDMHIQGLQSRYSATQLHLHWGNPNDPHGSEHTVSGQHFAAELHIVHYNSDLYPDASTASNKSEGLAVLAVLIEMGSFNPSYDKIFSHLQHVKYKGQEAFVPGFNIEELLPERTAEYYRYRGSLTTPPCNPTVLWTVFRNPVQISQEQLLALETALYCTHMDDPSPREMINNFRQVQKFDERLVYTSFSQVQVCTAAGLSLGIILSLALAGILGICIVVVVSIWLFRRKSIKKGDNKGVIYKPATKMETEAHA

Row | melting point | Selectivity index (SI) I/XII (hCA XII) | Selectivity index (SI) II/XII (hCA XII) | Ki (hCA XII) | Ki (hCA I) | Selectivity index (SI) I/IX (hCA IX) | Selectivity index (SI) II/IX (hCA IX) | Ki (hCA IX) | Ki (hCA II) | decrease of hCA II activity relative to the m-fluoro analogue (hCA II) | Compound | inhibition at 10 µM (Leukemia (SR)) | inhibition at 10 µM (CNS cancer (SNB-75)) | inhibition at 10 µM (Renal cancer (UO-31)) | inhibition at 10 µM [1]
1 | 264 to 266 °C | 0.4 | 0.6 | 936 nM | 408 nM | 0.3 | 0.5 | 1220 nM | 591 nM |  | CC1CCC2(CC1)N=C(N)N=C(Nc1ccc(S(N)(=O)=O)cc1)N2 (stereo not drawn) [Compound 8c, 4-({4-Amino-9-methyl-1,3,5-triazaspiro[5.5]undeca-2,4-dien-2-yl}amino)benzene-1-sulfonamide] | ≤ 10% | ≤ 10% | ≤ 10% | ≤ 10%
2 | 264 to 266 °C | 0.01 | 0.5 | 7420 nM | 94.4 nM | 0.1 | 2.5 | 1420 nM | 3620 nM |  | NC1=NC2(CCCC2)NC(Nc2ccc(S(N)(=O)=O)cc2)=N1 [Compound 8a, 4-({9-Amino-6,8,10-triazaspiro[4.5]deca-7,9-dien-7-yl}amino)benzene-1-sulfonamide] | ≤ 10% | 14% | 17% | ≤ 10%
3 | 209 to 211 °C |  |  | > 10000 nM | > 10000 nM |  |  | > 10000 nM | > 10000 nM |  | CC1(C)N=C(N)N=C(N)N1c1ccc(S(=O)(=O)Nc2ccccn2)cc1.Cl [Compound 5b, 4-(4,6-Diamino-2,2-dimethyl-1,2-dihydro-1,3,5-triazin-1-yl)-N-(pyridin-2-yl)benzene-1-sulfonamide HCl] | ≤ 10% | 28% | 11% | ≤ 10%
4 | 284 to 286 °C | 0.01 | 0.006 | 7630 nM | 72.3 nM | 0.03 | 0.02 | 2450 nM | 49.2 nM |  | N#CCc1nc(N)nc(Nc2ccc(S(N)(=O)=O)cc2)n1 [Compound 10, 4-{[4-amino-6-(cyanomethyl)-1,3,5-triazin-2-yl]amino}benzene-1-sulfonamide] | ≤ 10% | 33% | ≤ 10% | ≤ 10%
5 | 270 to 272 °C | 0.1 | 0.6 | 5430 nM | 354 nM | 0.2 | 1.4 | 2280 nM | 3160 nM |  | NC1=NC2(CCCCC2)NC(Nc2ccc(S(N)(=O)=O)cc2)=N1 [Compound 8b, 4-({4-Amino-1,3,5-triazaspiro[5.5]undeca-2,4-dien-2-yl}amino)benzene-1-sulfonamide] | 15% | 21% | ≤ 10% | 11%
6 | 222 to 224 °C | 5.8 | 3.6 | 87.5 nM | 508 nM | 9.7 | 6.1 | 52.2 nM | 320 nM |  | N#C/C(=C\c1cccc(Cl)c1)c1nc(N)nc(Nc2ccc(S(N)(=O)=O)cc2)n1 [Compound 12h, 4-({4-Amino-6-[(1E)-2-(3-chlorophenyl)-1-cyanoeth-1-en-1-yl]-1,3,5-triazin-2-yl}amino)benzene-1-sulfonamide] | 27% | ≤ 10% | ≤ 10% | 11%
7 | 234 to 236 °C | 0.3 | 0.2 | 8210 nM | 2620 nM | 2.5 | 2 | 1020 nM | 2000 nM | 8 folds | N#C/C(=C\c1cccc(Br)c1)c1nc(N)nc(Nc2ccc(S(N)(=O)=O)cc2)n1 [Compound 12b, 4-({4-Amino-6-[(1E)-2-(3-bromophenyl)-1-cyanoeth-1-en-1-yl]-1,3,5-triazin-2-yl}amino)benzene-1-sulfonamide] | 14% | 14% | 16% | 16%
8 | 204 to 206 °C | 0.07 | 0.3 | 2310 nM | 159 nM | 0.8 | 3.6 | 195 nM | 697 nM |  | Cc1ccc(/C=C(\C#N)c2nc(N)nc(Nc3ccc(S(N)(=O)=O)cc3)n2)cc1 [Compound 12g, 4-({4-Amino-6-[(1E)-1-cyano-2-(4-methylphenyl)eth-1-en-1-yl]-1,3,5-triazin-2-yl}amino)benzene-1-sulfonamide] | ≤ 10% | 15% | 11% | 11%
9 | 268 to 270 °C | 1.5 | 0.1 | 4650 nM | 6840 nM | 23.2 | 1.3 | 295 nM | 384 nM |  | CC1(C)N=C(N)N=C(Nc2ccc(S(N)(=O)=O)cc2)N1 [Compound 7a, 4-[(4-Amino-6,6-dimethyl-1,6-dihydro-1,3,5-triazin-2-yl)amino]benzene-1-sulfonamide] | ≤ 10% | ≤ 10% | 12% | ≤ 10%
10 | 174 to 176 °C | 0.4 | 0.05 | 8060 nM | 3600 nM | 2.3 | 0.3 | 1540 nM | 436 nM |  | N#C/C(=C\c1ccccc1)c1nc(N)nc(Nc2ccc(S(N)(=O)=O)cc2)n1 [Compound 12a, 4-({4-Amino-6-[(1E)-1-cyano-2-phenyleth-1-en-1-yl]-1,3,5-triazin-2-yl}amino)benzene-1-sulfonamide] | ≤ 10% | ≤ 10% | ≤ 10% | ≤ 10%
11 | 221 to 223 °C |  |  |  |  |  |  |  |  |  | NC1=NC2(CCCC2)N(c2ccc(S(=O)(=O)Nc3ccccn3)cc2)C(N)=N1 (as salt: HCl) [Compound 6d, 4-(7,9-Diamino-6,8,10-triazaspiro[4.5]deca-7,9-dien-6-yl}-N-(pyridin-2-yl)benzene-1-sulfonamide.HCl] |  |  |  | 
12 | 269 to 271 °C | 0.5 | 0.1 | 8540 nM | 4050 nM | 4 | 1 | 971 nM | 893 nM |  | N#C/C(=C\c1ccc2c(c1)OCO2)c1nc(N)nc(Nc2ccc(S(N)(=O)=O)cc2)n1 [Compound 12e, 4-({4-Amino-6-[(1E)-2-(2H-1,3-benzodioxol-5-yl)-1-cyanoeth-1-en-1-yl]-1,3,5-triazin-2-yl}amino)benzene-1-sulfonamide] | 11% | ≤ 10% | 13% | 27%
13 | 245 to 247 °C |  |  |  |  |  |  |  |  |  | NC1=NC2(CCCCC2)N(c2ccc(S(=O)(=O)Nc3nccs3)cc2)C(N)=N1 (as salt: HCl) [Compound 6i, 4-(2,4-Diamino-1,3,5-triazaspiro[5.5]undeca-2,4-dien-1-yl)-N-(1,3-thiazol-2-yl)benzene-1-sulfonamide.HCl] |  |  |  | 
14 | 216 to 218 °C |  |  |  |  |  |  |  |  |  | NC1=NC2(CCCC2)N(c2ccc(S(=O)(=O)Nc3nccs3)cc2)C(N)=N1 (as salt: HCl) [Compound 6h, 4-{7,9-Diamino-6,8,10-triazaspiro[4.5]deca-7,9-dien-6-yl}-N-(1,3-thiazol-2-yl)benzene-1-sulfonamide.HCl] |  |  |  | 
15 | 216 to 218 °C |  |  |  |  |  |  |  |  |  | CC1(C)N=C(N)N=C(N)N1c1ccc(S(=O)(=O)Nc2nccs2)cc1 (as salt: HCl) [Compound 5c, 4-(4,6-Diamino-2,2-dimethyl-1,2-dihydro-1,3,5-triazin-1-yl)-N-(thiazol-2-yl)benzene-1-sulfonamide.HCl] |  |  |  | 
